PubChem BioAssay (NCI)
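Cultured in 96-well plates, cells were exposed to test compound for 48 hours across five concentrations. At the GI50, growth is halved. At the TGI there is no net growth.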

Columns and labels:
Assay in all cases: NCI tumour cell line growth inhibition, 48 h
[1] = tested on: 786-0 renal
[2] = tested on: UACC-257 melanoma
[3] = tested on: MOLT-4 leukemia
[4] = tested on: MDA-MB-231 breast
[5] = tested on: CCRF-CEM leukemia
[6] = tested on: OVCAR-5 ovarian
[7] = tested on: A549 NSCLC
[8] = tested on: COLO 205 colon

Compound | GI50 [1] [µM] | TGI [1] [µM] | GI50 [2] [µM] | TGI [2] [µM] | GI50 [3] [µM] | TGI [3] [µM] | GI50 [4] [µM] | TGI [4] [µM] | GI50 [5] [µM] | TGI [5] [µM] | GI50 [6] [µM] | TGI [6] [µM] | GI50 [7] [µM] | TGI [7] [µM] | GI50 [8] [µM] | TGI [8] [µM]
CN(C)c1ccc(/C=N/NC(=O)c2cccc3ccccc23)c(Cl)c1 | 5.87 | > 100 | 1.07 | 97.5 | 2.31 | > 100 | 11.5 | > 100 | 0.581 | > 100 | 24.1 | > 100 | 0.926 | > 100 | 2.88 | > 100
O=c1cc(O)c2c(O)cc(O)cc2o1 | – | > 100 | – | > 100 | – | > 100 | – | > 100 | – | > 100 | – | > 100 | – | > 100 | – | > 100
COc1ccc(C#CC2=C(c3cc(OC)c(OC)c(OC)c3)C(=O)OC2)cc1 | 4.94 | > 50 | 13 | > 50 | 1.1 | > 50 | 32 | > 50 | 1.03 | > 50 | > 50 | > 50 | 14.3 | 38.8 | 4.15 | > 50
Cc1cc2c(cc1C)[n+](Cc1ccc3ccccc3n1)cn2Cc1ccc2ccccc2n1 | 1.54 | 3.03 | 1.23 | 3.18 | 1.46 | 5.15 | 1.09 | 2.52 | 1.83 | 12.8 | 1.3 | 6.89 | 2.83 | 13 | 0.387 | 1.58
Cc1cc(S(N)(=O)=O)c(S/C(=N\Nc2ccc([N+](=O)[O-])cc2)c2ccc3ccccc3c2)cc1Cl | 18.7 | 42.9 | 30.1 | 78.3 | 73.9 | > 100 | 13.4 | 29.6 | 50.4 | > 100 | 14.8 | 27.9 | 54.1 | > 100 | 84 | > 100
CN(C)c1ccc(C(=C2C=CC(=[N+](C)C)C=C2)c2ccccc2Cl)cc1 | 0.341 | 1.13 | 0.528 | 1.73 | 0.593 | 12.9 | 0.338 | 1.73 | 0.402 | 5.06 | 0.408 | 1.48 | 0.248 | 4.24 | 0.17 | 0.312
Cc1ccc(C(=O)N=Nc2c(O)[nH]c3ccc(Cl)cc23)cc1 | > 50 | > 50 | > 50 | > 50 | 3.2 | > 50 | 18.7 | > 50 | 0.322 | > 50 | 44.6 | > 50 | 22.8 | > 50 | 19 | > 50
